Results taken from paper PMC5011342, “A high throughput drug screening assay to identify compounds that promote oligodendrocyte differentiation using acutely dissociated and purified oligodendrocyte precursor cells” (BMC Research Notes, 2016).
pEC50: −log10 of the molar value. Where two headings read alike, the source gives them in different places.

How the values were obtained:
expanded OPCs = test: cells; settings: for viability at 0.1 µM / viability at 1 µM / viability at 10 µM: Rattus norvegicus, 72 h
Summary of the method: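 Expanded OPCs seeded at 10,000 cells/well in differentiation media, then exposed to NCC library compounds at 10, 1 and 0.1 µM (quadruplicate, 0.1% DMSO) for three days. Viability read as alamarBlue fluorescence (560/590 nm) after 4 h at 37 °C; tunicamycin 5 ng/ml served as toxicity control.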

[1] = system: acutely dissociated and purified rat OPCs; test: Acute OL differentiation assay (MBP expression/cell, immunofluorescent image quantification); type: cell-based
Summary of the method: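 Oligodendrocyte precursor cells were enriched from P6-P7 Sprague–Dawley rat brains by immunopanning (RAN-2 and GalC depletion, O4 selection), plated at 5000 cells/well in serum-free, mitogen-free differentiation media on PDL/laminin 96-well view plates, centrifuged at 200×g, and pre-incubated 1–2 h before test compounds were added in quadruplicate. On DIV4, cells were fixed, stained for MBP and DAPI, imaged automatically, and MBP expression per cell was quantified.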

[2] = alamarBlue viability of expanded OPCs, compound at 0.1 µM, relative to DMSO control
[3] = alamarBlue viability of expanded OPCs, compound at 1 µM, relative to DMSO control
[4] = Rattus norvegicus, test compound at 2 uM, MBP expression relative to quetiapine, NCC library screen, sheet "All OLga data", read-out: 2 uM (% Quet)
[5] = Rattus norvegicus, test compound at 10 uM, MBP expression relative to quetiapine, NCC library screen, sheet "All OLga data", read-out: 10 uM (% Quet)
[6] = read-out: 0.1 µM (% DMSO), alamarBlue viability, NCC library compound at 0.1 µM, sheet "All Tox data"
[7] = read-out: 1 µM (% DMSO), alamarBlue viability, NCC library compound at 1 µM, sheet "All Tox data"
[8] = read-out: 10 µM (% DMSO), alamarBlue viability, NCC library compound at 10 µM, sheet "All Tox data"
[9] = Rattus norvegicus, test compound at 0.4 uM, NCC library screen, sheet "All OLga data", relative to quetiapine, read-out: 0.4 uM (% Quet)
[10] = Rattus norvegicus, test compound at 2 uM, NCC library screen, sheet "All OLga data", relative to quetiapine, read-out: 2 uM (% Quet)
[11] = Rattus norvegicus, test compound at 10 uM, NCC library screen, sheet "All OLga data", relative to quetiapine, read-out: 10 uM (% Quet)
[12] = read-out: 0.1 µM (% DMSO), alamarBlue viability of expanded OPCs, compound at 0.1 µM, sheet All Tox data
[13] = read-out: 1 µM (% DMSO), alamarBlue viability of expanded OPCs, compound at 1 µM, sheet All Tox data
[14] = read-out: 10 µM (% DMSO), alamarBlue viability of expanded OPCs, compound at 10 µM, sheet All Tox data
[15] = Rattus norvegicus, 2 uM test compound, relative to quetiapine, sheet "All OLga data", read-out: OL differentiation, 2 uM (% Quet)
[16] = Rattus norvegicus, 10 uM test compound, relative to quetiapine, sheet "All OLga data", read-out: OL differentiation, 10 uM (% Quet)
[17] = alamarBlue viability of expanded OPCs, compound at 10 µM, relative to DMSO control
[18] = Rattus norvegicus, test compound at 0.4 uM, MBP expression relative to quetiapine, NCC library screen, sheet "All OLga data", read-out: 0.4 uM (% Quet)
[19] = Rattus norvegicus, 0.4 uM test compound, relative to quetiapine, sheet "All OLga data", read-out: OL differentiation, 0.4 uM (% Quet)

Row | SMILES | 0.1 µM (% DMSO) (expanded OPCs; [2]) | 1 µM (% DMSO) (expanded OPCs; [3]) | viability at 0.1 µM (expanded OPCs; [6]) [%] | viability at 1 µM (expanded OPCs; [7]) [%] | viability at 10 µM (expanded OPCs; [8]) [%] | activation at 2 µM [1, 10] [%] | activation at 10 µM [1, 11] [%] | activation at 2 µM [1, 15] [%] | 10 µM (% DMSO) (expanded OPCs; [17]) | further results
1 | C=C[C@H]1C[N@@]2CC[C@H]1C[C@H]2[C@H](O)c1ccnc2ccc(OC)cc12 [Quinine] | 93.4 | 87.0 |  |  |  |  |  |  |  | activation at 2 µM [1, 4]: -22.9%; activation at 10 µM [1, 5]: -65.5%
2 | CN1CCc2cc(Cl)c(O)cc2[C@@H](c2ccccc2)C1 [R(+) SCH 23390] |  |  |  |  |  |  |  |  |  | 0.1 µM (% DMSO) (expanded OPCs; alamarBlue viability, NCC library compound at 0.1 µM, sheet "All Tox data"): 84.2 % DMSO; 1 µM (% DMSO) (expanded OPCs; alamarBlue viability, NCC library compound at 1 µM, sheet "All Tox data"): 78.8 % DMSO; 10 µM (% DMSO) (expanded OPCs; alamarBlue viability, NCC library compound at 10 µM, sheet "All Tox data"): 64.1 % DMSO; 0.4 uM (% Quet) ([1]; test compound at 0.4 uM, NCC library screen, sheet "All OLga data", relative to quetiapine): -16.1 % Quet; 2 uM (% Quet) ([1]; test compound at 2 uM, NCC library screen, sheet "All OLga data", relative to quetiapine): -24.3 % Quet
3 | COc1ccc2[nH]cc(C3=CCNCC3)c2c1 [RU-24969] |  |  | 83.2 | 62.4 | 36.7 | -15.5 |  |  |  | activation at 0.4 µM [1, 9]: -5.3%
4 | COCCCOc1ccnc(C[S+]([O-])c2nc3ccccc3[nH]2)c1C (stereo not shown) [Rabeprazole] |  |  | 101 | 85.1 | 76.7 | -8.5 | -69.9 |  |  | 
5 | CC(=O)SCC(Cc1ccccc1)C(=O)NCC(=O)OCc1ccccc1 (stereo not shown) [Racecadotril] |  |  |  |  |  |  |  | 23 |  | viability at 0.1 µM (expanded OPCs; [12]): 87.4%; viability at 1 µM (expanded OPCs; [13]): 92.9%; viability at 10 µM (expanded OPCs; [14]): 77.6%; activation at 10 µM [1, 16]: 56.4%
6 | CCN1CCC[C@H]1CNC(=O)c1c(O)c(Cl)cc(Cl)c1OC [Raclopride] |  |  |  |  |  |  |  | 12.4 |  | viability at 0.1 µM (expanded OPCs; [12]): 93.2%; viability at 1 µM (expanded OPCs; [13]): 92.8%; viability at 10 µM (expanded OPCs; [14]): 89.9%; activation at 10 µM [1, 16]: 43.4%
7 | O=C(c1ccc(OCCN2CCCCC2)cc1)c1c(-c2ccc(O)cc2)sc2cc(O)ccc12 [Raloxifene, reference compound] | 161.1 | 38.6 |  |  |  |  |  |  | 7.7 | activation at 0.08 µM ([1]; Rattus norvegicus, test compound at 0.08 uM, MBP expression relative to quetiapine, NCC library screen, sheet "All OLga data", read-out: 0.08 uM (% Quet)): 91.9%; activation at 0.4 µM [1, 18]: -62.1%; pEC50 ([1]; Rattus norvegicus, average EC50 for induction of OL differentiation from independent biological replicates, eight concentrations): 7.00; hit in OL differentiation assay, MRF-TMC ([1]; ● = confirmed hit in this paper's assay): ●
8 | Cc1nc2ccc(CN(C)c3ccc(C(=O)N[C@@H](CCC(=O)O)C(=O)O)s3)cc2c(=O)[nH]1 [Raltitrexed] |  |  | 71.4 | 63.5 | 59.6 | -13.8 | -1.3 |  |  | 
9 | CCOC(=O)[C@H](CCc1ccccc1)N[C@@H](C)C(=O)N1[C@H](C(=O)O)C[C@@H]2CCC[C@@H]21 [Ramipril] |  |  |  |  |  |  |  | -3.3 |  | viability at 0.1 µM (expanded OPCs; [12]): 90.8%; viability at 1 µM (expanded OPCs; [13]): 98.4%; viability at 10 µM (expanded OPCs; [14]): 100%; 0.1 µM (% DMSO) (expanded OPCs; rat, 3 days, 0.1 µM): 92.1 % DMSO; 1 µM (% DMSO) (expanded OPCs; rat, 3 days, 1 µM): 96.0 % DMSO; 10 µM (% DMSO) (expanded OPCs; rat, 3 days, 10 µM): 96.0 % DMSO; activation at 10 µM [1, 16]: -14.5%; activation at 2 µM [1, 4]: 2.5%; activation at 10 µM [1, 5]: -1.1%
10 | CNC(=C[N+](=O)[O-])NCCSCc1ccc(CN(C)C)o1 [Ranitidine] | 109.0 | 105.8 |  |  |  | -29.4 | -7.9 |  | 106.7 | 
11 | COc1ccccc1OCC(O)CN1CCN(CC(=O)Nc2c(C)cccc2C)CC1 (stereo not shown) [Ranolazine] |  |  |  |  |  |  |  | 11.6 |  | viability at 0.1 µM (expanded OPCs; [12]): 99.2%; viability at 1 µM (expanded OPCs; [13]): 92.2%; viability at 10 µM (expanded OPCs; [14]): 95.9%; activation at 10 µM [1, 16]: -35.3%
12 | CC(Cc1ccccc1)(NC(=O)CN)c1ccccc1 (stereo not shown) [Remacemide] |  |  | 113 | 88.6 | 44.7 |  |  | 4.8 |  | activation at 0.4 µM [1, 19]: 5.6%
13 | CN1CCN2c3ncccc3Cc3ccccc3C2C1 (stereo not shown) [Remergil] |  |  |  |  |  |  |  |  |  | 0.1 µM (% DMSO) (expanded OPCs): 90.1 % DMSO; 1 µM (% DMSO) (expanded OPCs): 82.0 % DMSO; 10 µM (% DMSO) (expanded OPCs): 62.7 % DMSO; 2 uM (% Quet) ([1]; test compound at 2 uM, MBP expression relative to quetiapine, NCC library screen, sheet "All OLga data"): -49.3 % Quet; 10 uM (% Quet) ([1]; test compound at 10 uM, MBP expression relative to quetiapine, NCC library screen, sheet "All OLga data"): -63.5 % Quet
14 | CCOc1cc(CC(=O)N[C@@H](CC(C)C)c2ccccc2N2CCCCC2)ccc1C(=O)O [Repaglinide] |  |  | 90.5 | 96.8 | 125 | 13.8 | -23.7 |  |  | 
15 | Oc1ccc(/C=C/c2cc(O)cc(O)c2)cc1 [Resveratrol] |  |  | 83.2 | 87.6 | 76.7 | -34.1 | -128 |  |  | 
16 | CC1=C(/C=C/C(C)=C/C=C/C(C)=C/C(=O)O)C(C)(C)CCC1 [Retinoic Acid] | 144.5 | 188.5 |  |  |  | 128 |  |  | 58.3 | activation at 0.4 µM [1, 9]: -23%
17 | NC(=O)c1ncn([C@@H]2O[C@H](CO)[C@@H](O)[C@H]2O)n1 [Ribavirin] | 96.2 | 92.8 |  |  |  |  |  |  | 76.9 | activation at 0.4 µM [1, 18]: 8.6%; activation at 2 µM [1, 4]: 6.7%
18 | CO[C@H]1/C=C/O[C@@]2(C)Oc3c(C)c(O)c4c(c3C2=O)C2=NC3(CCN(CC(C)C)CC3)NC2=C(NC(=O)/C(C)=C\C=C\[C@H](C)[C@H](O)[C@@H](C)[C@@H](O)[C@@H](C)[C@H](OC(C)=O)[C@@H]1C)C4=O [Rifabutin] | 95.3 | 77.1 |  |  |  |  |  | -31.8 | 32.3 | viability at 0.1 µM (expanded OPCs; [12]): 86.7%; viability at 1 µM (expanded OPCs; [13]): 79.7%; viability at 10 µM (expanded OPCs; [14]): 37%; activation at 0.4 µM [1, 19]: 16.3%; activation at 0.4 µM [1, 18]: -0.04%; activation at 2 µM [1, 4]: -15.6%
19 | CO[C@H]1/C=C/O[C@@]2(C)Oc3c(C)c(O)c4c(O)c(c(/C=N/N5CCN(C)CC5)c(O)c4c3C2=O)NC(=O)/C(C)=C\C=C\[C@H](C)[C@H](O)[C@@H](C)[C@@H](O)[C@@H](C)[C@H](OC(C)=O)[C@@H]1C [Rifampicin] | 91.7 | 85.6 |  |  |  | -69.7 | -188 |  | 62.3 | 
